According to patent EP4813381A1, “PHARMACEUTICAL USE OF GUAIANE SESQUITERPENE DERIVATIVE” (Nanjing University Of Chinese Medicine, priority 2023, dated 2025):

How the values were obtained:
[1] = system: MC903-induced atopic dermatitis (AD); assay: MC903-induced AD model on the dorsum of mice, Compound 1 ointment: skin thickness and dermatitis score; assay type: in vivo; design: Skin thickness: unit not given here; conditions: for inhibition rate (dorsal skin thickness): final day; for Dermatitis Score: back, score max 12; for Skin thickness: dorsal region, AD mice
Protocol: Weigh white petrolatum, light liquid paraffin, glyceryl monostearate, ethylparaben, and cetyl alcohol. Heat to 65 °C while stirring until dissolved. Slowly add the dissolved active pharmaceutical ingredient (API) while continuing to stir until uniformly mixed. Set aside. • (2) Aqueous Phase Preparation: […] Slowly add the aqueous phase to the oil phase while maintaining 65 °C, homogenize, and continue stirring for 30 min; • (4) Cooling: Stop heating, continue stirring, gradually reduce to room temperature, cool to form an ointment, and fill containers. […] Dissolve these substances in a small amount of propylene glycol, then place the resulting solution into the aforementioned pre-cooled blank ointment base. […] Establishment of the AD Model on the Dorsum of Mice and Drug Administration: […] Except for the Normal group, all other groups underwent AD modeling: 48 hours prior to the experiment, hair on the dorsal neck region was meticulously removed using clippers and depilatory cream. […] Model and control group mice received daily application of blank ointment. Twenty-four hours after completing the 14-day modeling period, photographs of skin lesions were taken, and skin lesion and blood samples were collected. Skin Lesion Severity Score: […] Statistical analysis was performed on the data.

CT26 cells = assay type: in vivo, BALB/c mice; conditions: CT26, oral 80 µmol/kg/day, 3 weeks

## C=C1C(=O)O[C@@H]2[C@@H]3[C@]4(CC[C@@]3(C)O)C[C@]4(C)CC[C@@H]12 [compound 1]
[1]; 0.01% Compound 1 ointment
  inhibition rate (dorsal skin thickness): 66%
[1]; 0.1% Compound 1 ointment
  inhibition rate (dorsal skin thickness): 72%
[1]; 1% Compound 1 ointment
  inhibition rate (dorsal skin thickness): 83%
[1]; 0.01% ointment for 7 days
  Dermatitis Score: 3.67±0.33
[1]; 0.1% ointment for 7 days
  Dermatitis Score: 2.50±0.22
[1]; 1% ointment for 7 days
  Dermatitis Score: 2.17±0.17
[1]; 0.01% ointment
  Skin thickness: 36.06±0.91
[1]; 0.1% ointment
  Skin thickness: 33.11±0.31
[1]; 1% ointment
  Skin thickness: 29.56±0.25

## CN(C)C[C@@H]1C(=O)O[C@H]2[C@H]1CC[C@@]1(C)C[C@]13CC[C@@](C)(O)[C@H]23 [compound 20]
CT26 cells
  antitumor effects: tumor-inhibiting effects
